Patent US10201532B2, “Compounds and their use” (ALLECRA THERAPEUTICS GMBH, priority 2010, dated 2019)
Values joined by “and” are separate entries in the source; they are usually repeats but may differ in a detail not shown here. Identical values can stand only once. Like-named read-outs stand apart in the source and are kept apart here.

Tests used:
[1] = system: KPC2 K. pneumoniae ATCC BAA 1705; experiment: Mice systemic infection model; format: in vivo; conditions: sub-cutaneous, printed as piperacillin:BLI dose
[2] = system: KPC2 K. pneumoniae ATCC BAA 1705; experiment: Neutropenic mice thigh infection model (human adapted model); format: in vivo; conditions: for Bacterial load (range), Doripenem + BLI: Doripenem 70 mg/kg fractionated + BLI 35 mg/kg bolus, end point 8 h
Experimental: Female Swiss Albino mice weighing 24-30 g were used for all studies. Study protocols were reviewed and approved by Institutional Animal Ethical Committee, Orchid Research Laboratories Limited. Mice were rendered neutropenic by intra-peritoneal cyclophosphamide injections. Log phase culture in brain heart infusion broth was injected in to mice thighs. Imipenem or Doripenen alone or in combination were administered sub-cutaneously in decreasing fractionated doses every 15 minutes over the period of 5.5 h (Flückiger, U. et al. “Integration of pharmacokinetics and pharmacodynamics of Imipenem in a human-adapted mouse model’. Antimicrobial Agents and Chemother, 1991, 35(9): 1905-1910). The Compound-1 or tazobactam was administered sub-cutaneously as bolus dose at the start of dosing. Efficacy end point was 6 h in Imipenem studies and 8 h in Doripenen studies.
Three experiments were carried out where Doripenen alone or in combination with compound-1 or tazobactam (two experiments) were evaluated. Doripenem 70 mg/kg was administered in fractionated doses over the period of 5.5 h (Fluckiger, U. et al. “Integration of pharmacokinetics and pharmacodynamics of Imipenem in a human-adapted mouse model’. Antimicrobial Agents and Chemother., 1991, 35(9): 1905-1910). Compound-1 or tazobactam was administered as bolus dose at initiation of therapy. Efficacy end point was 8 h after initiation of therapy.

[3] = system: KPC2 K. pneumoniae ATCC BAA 1705; experiment: Mice systemic infection model; format: in vivo; conditions: Klebsiella pneumoniae
Experimental: Female Swiss Albino mice, weighing 18-22 g were used for all studies. For each dose group, 5 or 6 mice were included. Study protocols were reviewed and approved by Institutional Animal Ethical Committee, Orchid Research Laboratories Limited. Mice were housed in individually ventilated cages provided with food and water ad libitum, throughout the study period. From overnight culture in Brain-Heart Infusion agar medium, challenge inoculum with required bacterial density was prepared in normal saline containing Hog gastric mucin. In studies involved with doripenem, washed bacterial cells was used. Each mouse was infected […] inoculum by intra-peritoneal injection.
Infected mice were dosed sub-cutaneously, with drug preparations at three different time points post-infection.
Imipenem with BLI combinations: Increasing concentrations of Imipenem as single agent or in combination with fixed concentration of BLIs were used to dose infected mice, sub-cutaneously. In this experiment Imipenem was always administered along with cilastatin. Doripenem with BLI combinations: Increasing concentrations of doripenem as single agent or in combination with fixed concentration of BLIs were used to dose infected mice, sub-cutaneously.
Survival of the treated mice were monitored twice a day, up to 7 days post-infection. Efficacy dose 50 (ED50) was calculated by Reed and Muench method (Reed, L. J.; Muench, H. “A simple method of estimating fifty percent endpoints”. The American Journal of Hygiene, 1938, 27: 493-497.).

[4] = system: KPC-3 expressing E. coli (J53 R6206); experiment: Synergistic broth micro-dilution MIC (checkerboard); format: cell-based, Escherichia coli; conditions: for MIC: Escherichia coli, read-out: MIC of BLI alone, BLI alone
E. coli Ecoli233 (KPC3) = experiment: Synergistic broth micro-dilution MIC; format: cell-based, Escherichia coli
[5] = system: K. pneumoniae NCTC 13438 (KPC3); experiment: Synergistic broth micro-dilution MIC; format: cell-based, Klebsiella pneumoniae; conditions: BLI at 4 μg/mL
[6] = system: E. cloacae 01 MGH 049 (KPC2, AmpC); experiment: Synergistic broth micro-dilution MIC; format: cell-based; conditions: BLI at 4 μg/mL
[7] = system: K. pneumoniae UMM3 (KPC2); experiment: Synergistic broth micro-dilution MIC; format: cell-based, Klebsiella pneumoniae; conditions: BLI at 4 μg/mL
[8] = BAA1705, 168 h, read-out: ED50, single agent
[9] = BAA1705, BLI fixed at 64 mg/kg, mice, sub-cutaneous, with cilastatin, read-out: ED50 of Imipenem + BLI

Compound	ED50 of Piperacillin:BLI at 1:1 ratio [1]	Bacterial load (range), Doripenem + BLI [2]	ED50 [3, 8] [mg/kg]	ED50 [3, 9] [mg/kg]	MIC of Cefepime in combination with BLI ([4]; BLI at 2 μg/mL) [µg/mL]	MIC of Cefotaxime in combination with BLI ([4]; BLI at 2 μg/mL) [µg/mL]	MIC of Ceftazidime in combination with BLI ([4]; BLI at 2 μg/mL) [µg/mL]	MIC of Ceftobiprole in combination with BLI ([4]; BLI at 2 μg/mL) [µg/mL]	MIC of Imipenem in combination with BLI ([4]; BLI at 2 μg/mL) [µg/mL]	MIC of Meropenem in combination with BLI ([4]; BLI at 2 μg/mL) [µg/mL]	MIC of Cefepime in combination with BLI ([4]; BLI at 4 μg/mL) [µg/mL]	MIC of Cefotaxime in combination with BLI ([4]; BLI at 4 μg/mL) [µg/mL]	MIC of Ceftazidime in combination with BLI ([4]; BLI at 4 μg/mL) [µg/mL]	MIC of Ceftobiprole in combination with BLI ([4]; BLI at 4 μg/mL) [µg/mL]	MIC of Imipenem in combination with BLI ([4]; BLI at 4 μg/mL) [µg/mL]	MIC of Cefepime in combination with BLI ([4]; BLI at 8 μg/mL) [µg/mL]	MIC of Cefotaxime in combination with BLI ([4]; BLI at 8 μg/mL) [µg/mL]	MIC of Ceftazidime in combination with BLI ([4]; BLI at 8 μg/mL) [µg/mL]	MIC of Ceftobiprole in combination with BLI ([4]; BLI at 8 μg/mL) [µg/mL]	MIC of Imipenem in combination with BLI ([4]; BLI at 8 μg/mL) [µg/mL]	further results
C[n+]1ccn(C[C@@]2(C)[C@H](C(=O)[O-])N3C(=O)C[C@H]3S2(=O)=O)n1 [Compound-1, 1-{[(2S,3S,5R)-2-Carboxy-3-methyl-4,4,7-trioxo-4-thia-1-azabicyclo[3.2.0]hept-3-yl]methyl}-3-methyl-1H-1,2,3-triazol-3-ium]	50 mg/kg and 50:50 mg/kg	7.9E+05-1.4E+06 CFU/thigh	> 64	2.2	1	1	2	2	1	<0.06	0.25	<0.25	1	0.5	0.5	<0.125	<0.25	1	<0.25	0.5	Bacterial load (range), Doripenem + BLI ([2]; listed as compound-1): 7.9E+05-1.3E+06 CFU/thigh; Bacterial load, Imipenem + BLI ([2]; Imipenem 140 mg/kg fractionated + BLI 140 mg/kg bolus, end point 6 h): 2.1E+05 CFU/thigh; MIC of Meropenem in combination with BLI ([4]; BLI at 8 μg/mL): <0.06 µg/mL; MIC of Imipenem in combination with BLI ([4]; BLI at 16 μg/mL): 0.25 µg/mL; MIC of Meropenem in combination with BLI ([4]; BLI at 16 μg/mL): <0.125 µg/mL; MIC [4]: > 8 µg/mL; MIC of Imipenem in combination with BLI (E. coli Ecoli233 (KPC3); BLI at 4 μg/mL): 4 µg/mL; MIC of Imipenem in combination with BLI (E. coli Ecoli233 (KPC3); BLI at 16 μg/mL): 1 µg/mL; MIC of Imipenem in combination with BLI [5]: 32 µg/mL; MIC of Imipenem in combination with BLI [6]: 4 µg/mL; MIC of Imipenem in combination with BLI [7]: 1 µg/mL
C[C@]1(Cn2ccnn2)[C@H](C(=O)O)N2C(=O)C[C@H]2S1(=O)=O [Tazobactam]	>200:>200 mg/kg	1.19 × 10^7-1.6 × 10^7 CFU/thigh	> 200	4	16	8	32	32	2	1	8	8	32	16	2	4	4	32	16	1	ED50 of Piperacillin:BLI at 1:1 ratio ([1]; listed as tazobactam): > 200 mg/kg; MIC of Meropenem in combination with BLI ([4]; BLI at 4 μg/mL): 0.5 µg/mL; MIC of Meropenem in combination with BLI ([4]; BLI at 8 μg/mL): 0.5 µg/mL; MIC of Imipenem in combination with BLI ([4]; BLI at 16 μg/mL): 1 µg/mL; MIC of Meropenem in combination with BLI ([4]; BLI at 16 μg/mL): <0.125 µg/mL; MIC [4]: > 8 µg/mL; MIC of Imipenem in combination with BLI (E. coli Ecoli233 (KPC3); BLI at 4 μg/mL): 8 µg/mL; MIC of Imipenem in combination with BLI (E. coli Ecoli233 (KPC3); BLI at 16 μg/mL): 8 µg/mL; MIC of Imipenem in combination with BLI [5]: 64 µg/mL; MIC of Imipenem in combination with BLI [6]: 8 µg/mL; MIC of Imipenem in combination with BLI [7]: 4 µg/mL
